What was measured:
[1] = Stability of liver microsomes; assay type: in vitro ADME; details: 10 umol/L
Method: Liver microsomes belonging to different species (human, rat) were respectively reacted with the compound according to the present invention for a certain period of time, and the residual rate was calculated by comparing a reacted sample with an unreacted sample, and the extent to which the compounds according to the present invention were metabolized by the liver was evaluated.

[2] = tested on: Salmonella TA98, TA100, TA1535, TA1537 and Escherichia coli; experiment: Reverse mutation test (Ames test); design: species or system Salmonella typhimurium; details: non-metabolic activation conditions and activation conditions (-S9/+S9)
Method: Salmonella TA98, TA100, TA1535, TA1537 and Escherichia coli were used as test strains (strain source: Molecular Toxicology, Inc.). Ames test was performed under non-metabolic activation conditions and activation conditions to investigate whether the compounds according to the present invention have gene mutation inducing properties.
The cryopreserved strains were resuscitated, inoculated into nutrient broth medium and cultured in a 37° C. constant temperature shaker at 100 to 120 rpm for 11 h. The bottom agar medium (containing an appropriate amount of agar, V-B buffer, 20% glucose solution, 20% magnesium sulfate solution) was poured into a dish to cool for later use. […] The cultured plate was removed, counted and compared with the DMSO group for evaluation. If the average number of reverted colonies is twice or more than the number of reverted colonies in the negative control group (which can be regarded as spontaneous reverted number) (TA1535: 3 times or more) and there is a dose-effect relationship, the result is positive, and the test sample can be determined to be a mutagenic agent. […]

rat CIA model = experiment: Hindfoot foot volume in rat CIA model; assay type: in vivo, Lewis rats; details: CIA rats; for Foot volume (ml)/Day: hindfoot
Method: (§1) Lewis rats (female, 10-12 weeks old) were obtained from Beijing Vital River Laboratory Animal Technology Co., Ltd. The rats were on a light and dark alternation for 12 h, and the environment was kept at a temperature of 23±2° C. and a humidity of 40-70%.
(§2) Type II collagen solution (2 mg/mL) was prepared with 0.05 M acetic acid solution to allow to be fully dissolved, and placed overnight in the dark at 4° C. During the test, 2 mg/mL type II collagen (C II) solution and 4 mg/mL complete Freund's adjuvant (CFA) solution were mixed in equal volumes under ice bath conditions to fully emulsify. On day 0, an emulsion prepared by mixing equal volumes of C II (2 mg/mL) and CFA (4 mg/mL) was injected intracutaneously into the base of the tail of experimental rats for primary immunization, and on day 7, secondary booster immunization was performed.
(§3) The therapeutic effect of the test compound was tested in a rat CIA model. The rats were randomly divided into groups with 8 animals in each group. All animals were immunized on day 0 and boosted on day 7.
(§4) Therefore, the differences in body weight and foot volume after the onset of arthritis compared with the negative group, respectively, can be used to evaluate the therapeutic effect in the rat model. The experimental data were expressed as Mean±SEM; the data between the two groups was tested by unpaired t-test and p<0.05 was considered as a significant difference.

Pharmacokinetic study = assay type: in vivo; details: rat, plasma; rats, oral, 1-10 mg/kg
Method: For the intravenous route and the oral route, the compound was formulated in an aqueous solution containing 5% DMSO+95% hydroxypropyl-β-cyclodextrin. Test animals were administered orally at 1-10 mg/kg and intravenously at 1-5 mg/kg. Each group included 3 rats. About 0.2 mL of blood was collected by jugular vein puncture with heparin sodium anticoagulant at the following time points: 0.083 h, 0.25 h, 0.5 h, 1 h, 2 h, 4 h, 6 h, 8 h, 10 h and 24 h. Plasma was separated by centrifugation at 5000-13000 rpm for 10 min within 1 hour after collecting the blood sample, and the plasma sample was analyzed on LC-MS/MS.
The pharmacokinetic parameters were calculated using Phoenix WinNonlin 7.0 based on blood drug concentration data at different time points to provide parameters such as AUC0-t, AUC0-∞, MRT0-∞, Cmax, Tmax, and T1/2.

[3] = 2 mg/kg oral gavage once daily for 2 w, day 0
[4] = 2 mg/kg oral gavage once daily for 2 w, day 8
[5] = 2 mg/kg oral gavage once daily for 2 w, day 11
[6] = 2 mg/kg oral gavage once daily for 2 w, day 14
[7] = 2 mg/kg oral gavage once daily for 2 w, day 17
[8] = 2 mg/kg oral gavage once daily for 2 w, day 21
[9] = 2 mg/kg oral gavage once daily for 2 w, day 24
[10] = 2 mg/kg oral gavage once daily for 2 w, day 28
[11] = 3 mg/kg oral gavage once daily for 2 w, day 0
[12] = 3 mg/kg oral gavage once daily for 2 w, day 8
[13] = 3 mg/kg oral gavage once daily for 2 w, day 11
[14] = 3 mg/kg oral gavage once daily for 2 w, day 14
[15] = 3 mg/kg oral gavage once daily for 2 w, day 17
[16] = 3 mg/kg oral gavage once daily for 2 w, day 21
[17] = 3 mg/kg oral gavage once daily for 2 w, day 24
[18] = 3 mg/kg oral gavage once daily for 2 w, day 28
[19] = 5 mg/kg oral gavage once daily for 2 w, day 0
[20] = 5 mg/kg oral gavage once daily for 2 w, day 11
[21] = 5 mg/kg oral gavage once daily for 2 w, day 14
[22] = 5 mg/kg oral gavage once daily for 2 w, day 17
[23] = 5 mg/kg oral gavage once daily for 2 w, day 21
[24] = 5 mg/kg oral gavage once daily for 2 w, day 24
[25] = 5 mg/kg oral gavage once daily for 2 w, day 28
[26] = 10 mg/kg oral gavage once daily for 2 w, day 0
[27] = 10 mg/kg oral gavage once daily for 2 w, day 8
[28] = 10 mg/kg oral gavage once daily for 2 w, day 11
[29] = 10 mg/kg oral gavage once daily for 2 w, day 14
[30] = 10 mg/kg oral gavage once daily for 2 w, day 17
[31] = 10 mg/kg oral gavage once daily for 2 w, day 21
[32] = 10 mg/kg oral gavage once daily for 2 w, day 24
[33] = 10 mg/kg oral gavage once daily for 2 w, day 28

Method for Body weight of CIA rats: as §1, §2, §3, §4

**Q.** Which results are given for `O=C(Nc1cn2c(-c3ccc(CN4CCS(=O)(=O)CC4)s3)cccc2n1)[C@H]1C[C@@H]1F` (relative stereo) [EXP-3, trans-N-[5-[5-[(1,1-dioxo-1,4-thiazin-4-yl)methyl]-2-thiophene]imidazo[1,2-a]pyridin-2-yl]-2-fluoro-cyclopropylcarboxamide]?
**A.** residual rate of the compound in oxidative metabolism ([1]; human liver microsomes): 59.32%; residual rate of the compound in oxidative metabolism ([1]; rat liver microsomes): 55.3%; Ames test result [2]: negative; foot volume, relative potency in words (rat CIA model; 10 mg/kg): the most potent and significantly stronger than filgotinib 10 mg/kg; Foot volume (ml)/Day (rat CIA model; [3]): 2.603 ± 0.021 mL; Foot volume (ml)/Day (rat CIA model; [4]): 2.590 ± 0.027 mL; Foot volume (ml)/Day (rat CIA model; [5]): 2.634 ± 0.059 mL; Foot volume (ml)/Day (rat CIA model; [6]): 3.648 ± 0.303 mL; Foot volume (ml)/Day (rat CIA model; [7]): 4.465 ± 0.261 mL; Foot volume (ml)/Day (rat CIA model; [8]): 4.600 mL; Foot volume (ml)/Day (rat CIA model; [9]): 4.487 mL; Foot volume (ml)/Day (rat CIA model; [10]): 4.181 mL; Foot volume (ml)/Day (rat CIA model; [11]): 2.633 ± 0.017 mL; Foot volume (ml)/Day (rat CIA model; [12]): 2.624 ± 0.010 mL; Foot volume (ml)/Day (rat CIA model; [13]): 2.706 ± 0.037 mL; Foot volume (ml)/Day (rat CIA model; [14]): 3.724 ± 0.239 mL; Foot volume (ml)/Day (rat CIA model; [15]): 4.759 ± 0.291 mL; Foot volume (ml)/Day (rat CIA model; [16]): 4.863 mL; Foot volume (ml)/Day (rat CIA model; [17]): 4.754 mL; Foot volume (ml)/Day (rat CIA model; [18]): 4.299 mL; Foot volume (ml)/Day (rat CIA model; [19]): 2.631 ± 0.017 mL; Foot volume (ml)/Day (rat CIA model; [20]): 2.703 ± 0.061 mL; Foot volume (ml)/Day (rat CIA model; [21]): 3.684 ± 0.315 mL; Foot volume (ml)/Day (rat CIA model; [22]): 4.516 ± 0.302 mL; Foot volume (ml)/Day (rat CIA model; [23]): 4.724 mL; Foot volume (ml)/Day (rat CIA model; [24]): 4.582 mL; Foot volume (ml)/Day (rat CIA model; [25]): 4.176 mL; Foot volume (ml)/Day (rat CIA model; [26]): 2.645 ± 0.017 mL; Foot volume (ml)/Day (rat CIA model; [27]): 2.613 ± 0.017 mL; Foot volume (ml)/Day (rat CIA model; [28]): 2.647 ± 0.075 mL; Foot volume (ml)/Day (rat CIA model; [29]): 3.652 ± 0.287 mL; Foot volume (ml)/Day (rat CIA model; [30]): 4.249 ± 0.342 mL; Foot volume (ml)/Day (rat CIA model; [31]): 4.331 mL; Foot volume (ml)/Day (rat CIA model; [32]): 4.125 mL; Foot volume (ml)/Day (rat CIA model; [33]): 3.826 mL; Body weight (g)/Day (Body weight of CIA rats; [3]): 172.3 ± 1.9 g; Body weight (g)/Day (Body weight of CIA rats; [4]): 172.6 ± 0.7 g; Body weight (g)/Day (Body weight of CIA rats; [5]): 172.3 ± 1.8 g; Body weight (g)/Day (Body weight of CIA rats; [6]): 170.3 ± 1 g; Body weight (g)/Day (Body weight of CIA rats; [7]): 169.1 ± 1.2 g; Body weight (g)/Day (Body weight of CIA rats; [8]): 164.9 ± 1.8 g; Body weight (g)/Day (Body weight of CIA rats; [9]): 166.4 ± 2.6 g; Body weight (g)/Day (Body weight of CIA rats; [10]): 166.9 ± 2.7 g; Body weight (g)/Day (Body weight of CIA rats; [11]): 174.5 ± 1.3 g; Body weight (g)/Day (Body weight of CIA rats; [12]): 172.4 ± 2.7 g; Body weight (g)/Day (Body weight of CIA rats; [13]): 170.8 ± 3.8 g; Body weight (g)/Day (Body weight of CIA rats; [14]): 171.6 ± 2.9 g; Body weight (g)/Day (Body weight of CIA rats; [15]): 170.1 ± 2.7 g; Body weight (g)/Day (Body weight of CIA rats; [16]): 166.8 ± 1.8 g; Body weight (g)/Day (Body weight of CIA rats; [17]): 165 ± 1.8 g; Body weight (g)/Day (Body weight of CIA rats; [18]): 169.3 ± 2 g; Body weight (g)/Day (Body weight of CIA rats; [19]): 171.8 ± 2.3 g; Body weight (g)/Day (Body weight of CIA rats; 5 mg/kg oral gavage once daily for 2 w, day 8): 171.1 ± 3.1 g; Body weight (g)/Day (Body weight of CIA rats; [20]): 170.9 ± 4.5 g; Body weight (g)/Day (Body weight of CIA rats; [21]): 171.4 ± 2.4 g; Body weight (g)/Day (Body weight of CIA rats; [22]): 172.8 ± 2.2 g; Body weight (g)/Day (Body weight of CIA rats; [23]): 166.5 ± 1.9 g; Body weight (g)/Day (Body weight of CIA rats; [24]): 165.3 ± 1.7 g; Body weight (g)/Day (Body weight of CIA rats; [25]): 169.1 ± 2.1 g; body weight course, in words (Body weight of CIA rats; 10 mg/kg): increased slightly on days 11-17, but then fell back; Body weight (g)/Day (Body weight of CIA rats; [26]): 173.9 ± 1.8 g; Body weight (g)/Day (Body weight of CIA rats; [27]): 175.3 ± 2.1 g; Body weight (g)/Day (Body weight of CIA rats; [28]): 175.9 ± 2.8 g; Body weight (g)/Day (Body weight of CIA rats; [29]): 175.3 ± 2.2 g; Body weight (g)/Day (Body weight of CIA rats; [30]): 176.4 ± 3.3 g; Body weight (g)/Day (Body weight of CIA rats; [31]): 171.8 ± 2.9 g; Body weight (g)/Day (Body weight of CIA rats; [32]): 166.3 ± 2.9 g; Body weight (g)/Day (Body weight of CIA rats; [33]): 170.4 ± 3.1 g

**Q.** With `O=C(Nc1nc2cccc(-c3ccc(CN4CCS(=O)(=O)CC4)s3)n2n1)C1CC1` [EXP-1] as the molecule, how does the AUC (Pharmacokinetic study) read?
**A.** Its AUC is 12000 ng·h/mL.

**Q.** What about the Cmax (Pharmacokinetic study) of the same molecule?
**A.** Its Cmax is 2630 ng/mL.

**Q.** What about the half-life (Pharmacokinetic study) of the same molecule?
**A.** The half-life was 2.68 h.

Reference: US20220274983A1, “JAK KINASE INHIBITOR AND USE THEREOF” (JIANGSU CAREPHAR PHARMACEUTICAL CO., LTD., priority 2019, published 2022)
